Among the test systems are A498; A549; BT-549; COLO 205; EKVX; Hs-578T; M14; MDA-MB-231; NCI-H226; NCI-H460; NCI/ADR-RES; OVCAR-8; RXF 393; SK-MEL-2; SN12C; SNB-19; SW-620; TK-10; U-251; 786-0.
Test in all cases: inhibition of tumour cell growth, NCI panel, 48 h

Structures are written as SMILES.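 In this assay, cells in 96-well plates receive the compound at five concentrations for 48 hours. Endpoints are linearly interpolated between the surrounding concentrations. GI50 marks 50% less growth.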 The source made the active and inactive calls. Cut-off read from the data, not from the text of the source: active = GI50 up to about 1.1 µM and inactive = higher.

With `O=C1C=CC2(C=C1)O[C@H](Cc1ccccc1)[C@@H](Cc1ccccc1)O2`, the GI50 with A498 is 5.74 µM (inactive); in the assay with A549 it was 4.62 µM (inactive); with BT-549, 0.201 µM (active); in the assay with COLO 205, 1.55 µM (inactive); in the assay with EKVX, 0.355 µM (active); with Hs-578T, 0.716 µM (active). Further, the GI50 with M14 is 0.653 µM (active); with MDA-MB-231, 1.12 µM (active); in the assay with NCI-H226, 0.255 µM (active); in the assay with NCI-H460 it was 8.79 µM (inactive); in the assay on NCI/ADR-RES, 0.303 µM (active); with OVCAR-8, 0.193 µM (active). The GI50 is 0.26 µM (active) in the assay on RXF 393; 1.41 µM (inactive) in the assay with SK-MEL-2; 0.665 µM (active) in the assay with SN12C; 2.11 µM (inactive) with SNB-19; 0.137 µM (active) in the assay on SW-620; 0.506 µM (active) in the assay on TK-10. In addition, in the assay on U-251, the GI50 was 1.05 µM (active).

`CCN(CC)CCNc1ccc2nnn3c4ccc(OC(C)=O)cc4c(=O)c1c23`: the GI50 in the assay on A498 is 6.76 µM (inactive); with A549, 3.14 µM (inactive); in the assay on BT-549 it was 13.4 µM (inactive); in the assay with COLO 205, 2.45 µM (inactive); in the assay with EKVX it was 5.56 µM (inactive); with Hs-578T, 4.39 µM (inactive). Further, the GI50 with M14 was 6.64 µM (inactive); with MDA-MB-231, 2.65 µM (inactive); in the assay on NCI-H226, 0.615 µM (active); in the assay on NCI-H460, 0.243 µM (active); in the assay with NCI/ADR-RES, 4.45 µM (inactive); in the assay on OVCAR-8 it was 1.15 µM (inactive). Moreover, the GI50 was 1.11 µM (active) in the assay with RXF 393; 14.8 µM (inactive) in the assay on SK-MEL-2; 2.26 µM (inactive) in the assay with SN12C; > 20.3 µM (inactive) in the assay on SNB-19; 1.11 µM (active) with SW-620; 3.52 µM (inactive) with TK-10. Besides, in the assay on U-251, the GI50 is 2.22 µM (inactive).

For `CC(=O)NCCC1CNc2ccccc21` (configuration not stated), the GI50 in the assay on A498, in the assay with A549, in the assay on BT-549, in the assay with COLO 205, with EKVX and with Hs-578T was > 100 µM (inactive) each time. In addition, the GI50 in the assay on M14, in the assay on MDA-MB-231, in the assay on NCI-H226, in the assay on NCI-H460, in the assay with NCI/ADR-RES and with OVCAR-8 was > 100 µM (inactive) each time. Besides, the GI50 in the assay on RXF 393, with SK-MEL-2, in the assay on SN12C, in the assay with SNB-19, with SW-620 and in the assay with TK-10 was > 100 µM (inactive) each time. The GI50 with U-251 is > 100 µM (inactive).

`N#CC(/N=N/c1ccc(Cl)cc1)c1nc2ccccc2o1` (configuration not stated): the GI50 was 62.2 µM (inactive) in the assay on 786-0; 49 µM (inactive) in the assay with A498; > 100 µM (inactive) in the assay on A549; 32.6 µM (inactive) in the assay on BT-549; 22.3 µM (inactive) in the assay with COLO 205; 34.5 µM (inactive) in the assay with EKVX. Besides, the GI50 in the assay on Hs-578T was 42.7 µM (inactive); in the assay with M14, > 100 µM (inactive); in the assay on MDA-MB-231, 37 µM (inactive); in the assay on NCI-H226 it was > 100 µM (inactive); with NCI-H460, > 100 µM (inactive); with NCI/ADR-RES, > 100 µM (inactive). The GI50 in the assay with OVCAR-8 was 88.1 µM (inactive); in the assay with RXF 393, 37.6 µM (inactive); with SK-MEL-2 it was 28.7 µM (inactive); in the assay on SN12C, > 100 µM (inactive); with SNB-19, 42.7 µM (inactive); with TK-10 it was 56.6 µM (inactive). Moreover, the GI50 with U-251 was 29.6 µM (inactive).

As for `COc1ccc(-c2cc(-c3ccc(Nc4ccnc5cc(Cl)ccc45)cc3)[nH]c(=O)c2C#N)cc1`, the GI50 in the assay on 786-0, in the assay with A498, in the assay with A549, in the assay on BT-549, with COLO 205 and in the assay with EKVX was > 100 µM (inactive) each time. For the same compound, the GI50 in the assay on Hs-578T, in the assay with M14, in the assay on MDA-MB-231, in the assay with NCI-H226, with NCI-H460 and with NCI/ADR-RES was > 100 µM (inactive) in each case. Further, the GI50 is > 100 µM (inactive) in the assay on OVCAR-8; > 100 µM (inactive) in the assay on RXF 393; > 100 µM (inactive) in the assay with SK-MEL-2; 77.4 µM (inactive) in the assay with SNB-19; > 100 µM (inactive) with SW-620; 72.4 µM (inactive) in the assay with TK-10. In the assay on U-251, the GI50 is > 100 µM (inactive).

For the compound `CCOC(=O)C1=CNC(C(=O)OCC)C1c1cccn1-c1ccccc1` (configuration not stated), the GI50 with 786-0 was 32.5 µM (inactive); in the assay with A498, 37 µM (inactive); in the assay with A549 it was 33.9 µM (inactive); in the assay on BT-549, 36.7 µM (inactive); with COLO 205 it was 23.5 µM (inactive); in the assay with EKVX, 35.8 µM (inactive). Besides, the GI50 in the assay with Hs-578T was 38.6 µM (inactive); in the assay on M14, 32.9 µM (inactive); in the assay with MDA-MB-231, 12.5 µM (inactive); in the assay on NCI-H226 it was 23.3 µM (inactive); in the assay on NCI-H460, 29.4 µM (inactive); in the assay with NCI/ADR-RES, 22.8 µM (inactive). The GI50 with OVCAR-8 was 28.8 µM (inactive); with RXF 393, 19.4 µM (inactive); in the assay with SK-MEL-2, 12.1 µM (inactive); in the assay with SN12C, 29.4 µM (inactive); with SW-620, 27.1 µM (inactive); in the assay with TK-10, 41.8 µM (inactive). The GI50 in the assay with U-251 is 29.6 µM (inactive).

As to `FC(F)(F)C1(C(F)(F)F)OC(Cl)(Cl)C(Cl)(Cl)O1`, the GI50 in the assay with 786-0, in the assay with A498, in the assay on A549, with BT-549, in the assay with COLO 205 and in the assay with EKVX was > 10 µM (inactive) each time. Also, the GI50 in the assay with Hs-578T, in the assay on M14, in the assay with MDA-MB-231, with NCI-H226, with NCI-H460 and in the assay on NCI/ADR-RES was > 10 µM (inactive) throughout. For the same compound, the GI50 with OVCAR-8, in the assay with RXF 393, in the assay on SK-MEL-2, with SNB-19, with SW-620 and in the assay on TK-10 was > 10 µM (inactive) in each case. Moreover, the GI50 with U-251 is > 10 µM (inactive).

In the case of `O=S(=O)(O)c1cc(O)c2c(O)c(/N=N/c3cccc4ccccc34)c(S(=O)(=O)O)cc2c1`, the GI50 in the assay with 786-0, in the assay with A498, in the assay with A549, in the assay with BT-549, in the assay on COLO 205 and in the assay with EKVX was > 100 µM (inactive) in each case. Moreover, the GI50 in the assay on Hs-578T, in the assay with M14, in the assay on MDA-MB-231, in the assay on NCI-H226, with NCI/ADR-RES and with OVCAR-8 was > 100 µM (inactive) each time. For the same compound, the GI50 in the assay with RXF 393, with SK-MEL-2, with SN12C, in the assay on SNB-19, with SW-620 and in the assay on TK-10 was > 100 µM (inactive) throughout. Also, the GI50 with U-251 is > 100 µM (inactive).

The values are drawn from ChEMBL document CHEMBL1201862, “PubChem BioAssay data set” (2004).
